Data published in patent EP0355234A1, “Pyrazolopyridine derivatives as antiatherosclerotic and antihypercholesterolemic agents” (MERRELL DOW PHARMACEUTICALS INC., priority 1988, dated 1990).
Where a name gives a salt, the structure may show the parent alone.

Tested on: Hypercholesterolemic Rabbit
Assay: Antiatherosclerotic and antihypercholesterolemic effects in the hypercholesterolemic (2% cholesterol diet) rabbit, six weeks of treatment
Format: in vivo, New Zealand white male rabbits
Conditions: mean ± standard deviation; for % of thoracic arota covered by plaque / Aortic arch cholesterol: 6 weeks treatment; for % of thoracic arota covered by plaque: Sudan Black stain, cut-weight planimetry, positive control Group 2: 70.57±9.54; for Aortic arch cholesterol: positive control Group 2: 15.82±4.64; for Serum Cholesterol: after 6 wks treatment, positive control Group 2: 2475±434
Procedure: Four groups of New Zealand white male rabbits (weighing 1-2 kg) were treated for six weeks according to the following treatment schedule [all injections were in volumes corresponding to 0.1 ml/kg subcutaneously (s.c.)]: • Group 1 maintained on normal rabbit chow; received polyethylene glycol 300 (PEG ) injection twice daily. • Group 2 (Positive Control) maintained on rabbit chow containing 2% by weight cholesterol; received PEG injection twice daily. • Group 3 maintained on rabbit chow containing 2% by weight cholesterol; received 4,7-dihydro-1,6-dimethyl-4-(2-methylphenyl)-3-(2-methylpropyl)-1H-pyrozolo[3,4-b]pyridine-5-carboxylic acid methyl ester monohydrochloride (compound 1A) at a dose of 1 mg/kg in PEG twice daily. • Group 4 maintained on rabbit chow containing 2% by weight cholesterol; received compound 1A at a dose of 10 mg/kg in PEG twice daily.
The body weight of each rabbit was measured weekly. At three week and six week intervals after the start of treatment, blood samples were obtained from each rabbit and determinations of platelet aggregation, serum cholesterol, triglycerides, electrolyte concentrations and hematological parameters were performed.
Six weeks after the start of treatment, the animals were sacrificed. Aortic arches and thoracic aortas were removed and were dissected free of extraneous tissues. The aortic arches were weighed, homogenized in isopropanol, and determinations of cholesterol, triglycerides and electrolyte concentrations were performed. Thoracic aortas were slit down the ventral surface and stained for lipoproteins and lipids by immersion for 5 min in Sudan Black according to the method of Gradwohl (Gradwohl's Clinical Laboratory Methods and Diagnosis (1980) Vol. 1, Edition 8, Chapter 25, pg 771; Sonnenwerth and Jarett, editors, The C.V. Mosby Company, St. Louis, Toronto, London). The percentage of luminal surface covered by atherosclerotic plaque was assessed by "cut-weight" planimetry of the projected image according to the method of Willis et al. (Arteriosclerosis 5, 250 (1985)) whereby the photographic image was projected at a magnification of 7 to 10 and the outer border of the tissue and the boundary between plaque and uninvolved tissue were traced and the appropriate areas were cut out and weighed.

[1] = Group 3: 1 mg/kg bid s.c. in PEG
[2] = Group 4: 10 mg/kg bid s.c. in PEG

With `COC(=O)C1=C(C)Nc2c(c(CC(C)C)nn2C)C1c1ccccc1C` (stereo not drawn) [Compound 1A, 4,7-dihydro-1,6-dimethyl-4-(2-methylphenyl)-3-(2-methylpropyl)-1H-pyrozolo[3,4-b]pyridine-5-carboxylic acid methyl ester monohydrochloride] the “% of thoracic arota covered by plaque” value [1] was 34.33±19.03 %, the Aortic arch cholesterol [1] was 9.57±1.38 µg/mg wet wt and the “Serum Cholesterol” value [1] was 1919 ± 345 mg/dL. For the same compound, the “% of thoracic arota covered by plaque” value [2] was 36.71±9.95 %, the Aortic arch cholesterol [2] was 9.27±1.91 µg/mg wet wt and the “Serum Cholesterol” value [2] was 1774 ± 300 mg/dL.
